Earlier results in patent US10219515B2, “Agrochemical adjuvant containing 2-oxo-1,3-dioxolan-4 carboxylates” (BASF SE, priority 2014, dated 2019).
Where two headings read alike, the source gives them in different places.

## O=C(O)CNCP(=O)(O)O [glyphosate]
amine
  acid dissociation constant pKa: ~11.0
Carboxylic acid
  acid dissociation constant pKa: ~2.3
First phosphonic acid
  acid dissociation constant pKa: ~0.8
Second phosphonic acid
  acid dissociation constant pKa: ~6.0
